Patent US20200046788A1, “COMPOSITIONS AND METHODS FOR TREATMENT OF INTESTINAL INFLAMMATION AND COLON CANCER” (University of Louisville Research Foundation, Inc., priority 2016, published 2020)

Tests used:
[1] = test system: human monocyte-derived DCs; conditions: LPS 100 ng/ml, western blot
Procedure: Western blot analysis. […] Images have been cropped for presentation.
(§1) Generation of mouse and human DCs. For the generation of mouse DCs, bone marrow cells were harvested from the femurs and tibias of mice and cultured in 6-well tissue culture plates (Costar) for 8 days in complete medium supplemented with 20 ng/ml GM-CSF and 10 ng/ml IL-4. BDNs, BDN-derived lipid or SFN was added to some wells on day 0. To obtain human DCs, peripheral blood mononuclear cells were isolated from healthy donors by Ficoll-Hypaque Plus (GE Healthcare). These studies were approved by the Institutional Review Board of University of Louisville. Monocytes were purified by a discontinuous Percoll gradient (GE Healthcare) and positive selection with the Monocyte Isolation kit (purity, >90%; Miltenyi Biotec). Monocytes were cultured in RPMI-1640 complete medium supplemented with 10% (vol/vol) heat-inactivated PCS, gentamicin ([…]), 2-mercaptoethanol (50 μM) and L-glutamine (2 mM; all from Gibco) containing IL-4 (5 ng/ml; Sigma) and recombinant human GM-CSF (35 ng/ml; Sigma) with or without SFN (10 μM). In some experiments, DCs were exposed for 24 h to LPS (100 ng/ml) with or without SFN.

DSS-induced colitis = experiment: Transfer of BMDCs treated with LN SFN knock-out / knock-in nanoparticles into mice with DSS colitis; format: in vivo, mouse
Procedure: FIGS. 7A-7F include graphs and images showing that BDN SFN protects colitis by inducing regulatory DCs, including graphs and images showing: (FIG. 7A) the lipids extracted from BDN-derived liposome-like nanoparticles (LN) or LN with SFN knock-out (LN-SFN^−/− or knock-in (LN-SFN^+/+) and a standard SFN were separated on a thin-layer chromatography plate and developed, where a representative image was scanned using an Odyssey Scanner; (FIGS. 7B-7D) BMDCs that were treated with CBA (20 μg/ml) for 24-48 hr in the presence of DMSO, LN-SFN^−/− or LN-SFN^+/+ and were injected i.v. […] (FIG. 7E) cytokine analysis by qRT-PCR of RNA recovered from colonic LPL1; and (FIG. 7F) the cell number of CD11b^+ DCs isolated from colon and MLN in DSS-induced colitis after adoptive transfer, where data are mean±SEM. (n=5), *P<0.05, **P<0.01 (Student's t-test). Lipid extraction, TLC and lipidomic analysis. Total lipid extraction from BDNs was performed according to the method of Bligh and Dyer, and the lipids were dissolved in chloroform or methanol for analysis. […] Developed plates were initially air-dried, then sprayed with CuSO4-phosphoric acid reagent (10% CuSO4 in 8% phosphoric acid), and followed by charring at 100° C. for 10 min. […] Total lipids were determined using the phosphate assay as described previously. […] Colitis was assessed as described above.

MC38 colon cancer cells = MC38 colon cancer cells treated with SFN or BDN-derived lipids (RT-PCR); format: cell-based, mouse
Procedure: RNA extraction and PCR. Total RNA was isolated from the small intestine and colon or tumor tissue using the Qiagen RNeasy RNA isolation Kit and was used to synthesize cDNA. RNA (1 μg) was reverse-transcribed with Superscript III and random primers (Invitrogen). For quantitation of genes of interest, cDNA samples were amplified in a CFX96 Realtime System (Bio-Rad Laboratories, Hercules, Calif., USA) using SYBR Green Master Mix (Invitrogen) and specific primers (Table 2) according to the manufacturer's instructions. Fold changes in mRNA expression between treatments and controls were determined by the […] as described. Results for each sample were normalized to the concentration of GAPDH mRNA measured in the same samples and expressed as fold increase over baseline levels, which are set at a value of 1. Differences between groups were determined using a two-sided Student's t-test and one-way ANOVA. Error bars on plots represent±SEM, unless otherwise noted. All primers were purchased from Eurofins MWG Operon.

BMDCs = test system: BMDCs
Procedure: as §1

CD4+ T cells = test system: CD4+ T cells
Procedure: as §1

intestinal tumorigenesis = test system: intestinal tumorigenesis
Procedure: Polyamine pools and Enzyme analyses. Tumor tissue was removed from intestine and was snap-frozen and stored at −70° C. Following removal of tumors, the normal small intestinal and colonic mucosa was scraped with a glass slide and snap-frozen. Frozen tissues were crushed into a fine powder. Specimens were homogenized in 1.2N perchloric acid and centrifuged to obtain the soluble supernatant extracts for polyamine analyses. Intracellular polyamine pools and acetylated polyamine pools were extracted with 1.2N perchloric acid, dansylated with dansyl chloride. The derivatized polyamines were separated on and analyzed using high-performance liquid chromatography on 150×4.6 mm ZORBAX SB-C18 column (Agilent) using methods described elsewhere. Polyamines were also quantitated by ELISA kit (Mybiosource, # MBS094198). For analysis of the enzyme activity, intestinal mucosal samples (4 mm^2) were immediately transferred to vials containing 0.5 ml of an ice-cold buffer [50 mM Tris-HCl (pH 7.5), 0.1 mM EDTA, and 0.1 mM pyridoxal phosphate)] and then homogenized and centrifuged. SSAT and ODC activities were determined by using C-labeled substrates and scintillation counting of end products produced as described previously (31) (or Cancer research SSAT mice).

[2] = SFN 10 μM + GM-CSF vs GM-CSF alone

## C[S+]([O-])CCCCN=C=S (stereo not drawn) [SFN, Sulforaphane]
[1]
  phosphorylation of AMPK at Thr172: increased phosphorylation of AMPK at Thr172
  phosphorylation of S6 and p70S6K: decreased S6 phosphorylation
DSS-induced colitis
  numbers of transferred BMDC reaching the MLNs and colon: lower numbers
MC38 colon cancer cells; RT-PCR, vs DMSO
  expression of CSN8 and ODC: inhibited
  expression of Nrf2 and SSAT1: strongly activated
MC38 colon cancer cells; knockdown of both Nrf2 and CSN8
  increase in SSAT1 caused by SFN: significantly inhibited the increase
BMDCs; LPS 18 h, vs LPS alone
  IL-10 production (ELISA): more IL-10
  IL-12, IL-23 production (ELISA): produced less IL-12, IL-23
BMDCs; [2]
  expression of CD11c: lower expression of CD11c
  expression of PD-L1: higher expression of PD-L1
CD4+ T cells; vs DC^DMSO
  CD25 on CD4+ T cells induced by DC^SFN: lower expression
  PD-1 on CD4+ T cells induced by DC^SFN: higher levels
CD4+ T cells; vs LPS-treated DC^DMSO
  IFN-γ production by CD4+ T cells primed with LPS-DC^SFN: less IFN-γ
  IL-10 production by CD4+ T cells primed with LPS-DC^SFN: more IL-10
CD4+ T cells; without LPS, vs DC^DMSO
  IFN-γ production by CD4 T cells primed with DC^SFN: negligible production of IFN-γ

## NCCCCN [putrescine]
Intestinal tumorigenesis; 1% in drinking water
  polyamines pool in the small intestine: large increase
Intestinal tumorigenesis; APC^Min/+CSN8^fl/fl mice, vs control mice
  tumor number: an increase, but not statistically significant increase
Intestinal tumorigenesis; APC^Min/+CSN8^ΔIEC
  epithelial cell proliferation (Ki-67) in the small intestines: stimulated
  polyp numbers in the small intestines: strikingly increased
Intestinal tumorigenesis; APC^Min/+CSN8^ΔIEC mice, to that seen in APC^Min/+CSN8^fl/fl
  expression of nuclear Stat3, c-Myc and p21^(Cip1/WAF1): restored the expression
Intestinal tumorigenesis; mouse, in vivo
  polyp number in the colon: no effect
